The data set can be described thus: photoluminescence quantum yield (fraction); solvent given as SMILES.
[1] abbreviates: in c1ccc2c(c1)c1ccccc1n2-c1ccc(-c2ccc(-n3c4ccccc4c4ccccc43)cc2)cc1.
Where [2] appears, read: in O=P(c1ccccc1)(c1ccccc1)c1ccccc1Oc1ccccc1P(=O)(c1ccccc1)c1ccccc1.

With `O=C(/C=C(\O)c1ccc(N2c3ccccc3Oc3ccccc32)cc1)c1ccc(N2c3ccccc3Oc3ccccc32)cc1`, under setting [1], the photoluminescence quantum yield worked out at 0.68.
`CC1=C(c2ccccc2)C(C)=[N+]2C1=C(c1c(-c3ccccn3)nc3ccccn13)c1c(C)cc(C)n1[B-]2(F)F` returned a photoluminescence quantum yield (in ClCCl) of 0.739.
The compound `CC(C)[Si]1(C(C)C)c2cc(N(C)C)ccc2-c2ccc(C(F)(F)F)cc21` showed a photoluminescence quantum yield (in C1CCCCC1) of 0.37; a photoluminescence quantum yield (in CC#N) of 0.4; a photoluminescence quantum yield (in CCO) of 0.28; a photoluminescence quantum yield (in CCOCC) of 0.35; a photoluminescence quantum yield (in CS(C)=O) of 0.17; a photoluminescence quantum yield (in ClCCl) of 0.33. The photoluminescence quantum yield (in c1ccccc1) came out at 0.29.
`C[Si]1(C)O[Si](C)(C)c2cc3cc4c(cc3cc21)C(=O)c1cc2cc3c(cc2cc1C4=O)[Si](C)(C)O[Si]3(C)C` yielded a photoluminescence quantum yield (in ClC(Cl)Cl) of 0.01.
Under “in ClCCl”, `c1ccc(-n2nc(-c3ccc(N4c5ccccc5Sc5ccccc54)cc3)nc2-c2ccccn2)cc1` returned a photoluminescence quantum yield of 0.0562.
In the case of `Fc1ccccc1-c1nc2sc3ccccc3c2s1`, for the setting “in CS(C)=O”, the photoluminescence quantum yield turned out to be 0.64.
As to `COc1ccc(-c2ccc(/C=C/c3ccncn3)cc2)cc1`, the photoluminescence quantum yield (in ClCCl) stood at 0.14.
As to `c1ccc(/C(=C(\c2ccccc2)c2cc(-c3ccccc3)ccc2-c2ccc(-c3ccccc3)cc2)c2cc(-c3ccccc3)ccc2-c2ccc(-c3ccccc3)cc2)cc1`, where the note is “in C1CCOC1”, the photoluminescence quantum yield came to 0.38.
Compound `CC(C)(C)c1ccc(C#Cc2c(C#Cc3ccc(C(C)(C)C)cc3)c3cccc4c(C#Cc5ccc(C(C)(C)C)cc5)c(C#Cc5ccc(C(C)(C)C)cc5)c5cccc2c5c34)cc1` had a photoluminescence quantum yield (in ClCCl) of 0.7.
`Cc1cc(C)c(-c2nnc(-c3ccc(-n4c5ccccc5c5ccccc54)c(C)c3)o2)c(C)c1` had a photoluminescence quantum yield (in Cc1ccccc1) of 0.44.
For the compound `CN1C(=O)/C(=C/c2ccncc2)N=C1/C=C/c1ccccc1`, the photoluminescence quantum yield was determined as 0.029 (in C1COCCO1); 0.011 (in CC#N); 0.099 (in CCO); 0.017 (in CCOC(C)=O); 0.004 (in O).
As for `N#CC(C#N)=Cc1ccc(-c2ccc(N(c3ccccc3)c3ccccc3)cc2)cc1`, the photoluminescence quantum yield (in ClC(Cl)Cl) came out at 0.19.
Turning to `CC(=O)OC[C@H]1O[C@@H](OCC#Cc2ccc(C3=C4C(C)=CC(/C=C/c5ccc([N+](C)(C)C)cc5)=[N+]4[B-](F)(F)n4c(/C=C/c5ccc([N+](C)(C)C)cc5)cc(C)c43)cc2)[C@H](OC(C)=O)C(OC(C)=O)[C@@H]1OC(C)=O` (stereo not given in full), the photoluminescence quantum yield (in CC#N) came out at 0.72.
The compound `CCCCCCCCc1ccc(-c2c3cc(-c4cc(CCCCCCCC)c(-c5ccc(-c6sc(/C=C7\SC(=S)N(CC)C7=O)cc6CCCCCCCC)s5)s4)sc3c(-c3ccc(CCCCCCCC)s3)c3cc(-c4cc(CCCCCCCC)c(-c5ccc(-c6sc(/C=C7\SC(=S)N(CC)C7=O)cc6CCCCCCCC)s5)s4)sc23)s1` returned a photoluminescence quantum yield (in C1CCOC1) of 0.048 and a photoluminescence quantum yield (in ClC(Cl)Cl) of 0.027.
Regarding `Cc1cccc(C)c1Nc1ccc(/C=C/c2ccc3ccccc3c2)cc1`, the photoluminescence quantum yield came to 0.08 (in CC#N) and 0.2 (in CCCCCC).
`Fc1nc(F)c(F)c(C#Cc2ccccc2C#Cc2c(F)c(F)nc(F)c2F)c1F` yielded a photoluminescence quantum yield (in CC#N) of 0.63.
`COC(=O)c1ccccc1C#Cc1ccccc1NC(C)=O`: the photoluminescence quantum yield runs as follows: (in CC#N) 0.0002; (in ClCCl) 0.0003.
For the setting “in Cc1ccccc1”, `c1ccc2c(c1)Cc1ccccc1N2c1c2ccccc2c(N2c3ccccc3Cc3ccccc32)c2ccccc12` gave a photoluminescence quantum yield of 0.06.
For the compound `CN(C)c1ccc(/C=C/c2ccc(-c3cc(-c4ccccn4)nc(-c4ccccn4)c3)cc2)cc1`, the photoluminescence quantum yield by setting is: (in C1CCOC1) 0.54; (in C1COCCO1) 0.48; (in CC#N) 0.41; (in CCO) 0.24; (in ClCCl) 0.62.
For the compound `C=CCNc1ccc2c(ccc3oc4cc(=[N+](C)C)ccc-4nc32)c1`, the photoluminescence quantum yield came out at 0.06 (in CC#N), 0.05 (in CCO), 0.4 (in ClCCl) and 0.009 (in O).
Consider `CC[n+]1nc2cc3c4c(c2c2ccccc21)CCCN4CCC3`, for which the photoluminescence quantum yield (in O) turned out to be 0.25.
In the case of `O=C1c2ccc(-c3ccc(N(c4ccccc4)c4ccccc4)cc3)cc2S(=O)(=O)c2cccc(-c3ccc(N(c4ccccc4)c4ccccc4)cc3)c21`, under setting [1], the photoluminescence quantum yield turned out to be 0.04.
`CCCCN(CCCC)c1ccc(C#Cc2cc(C#Cc3c(F)c(F)c(F)c(F)c3F)c(C#Cc3c(F)c(F)c(F)c(F)c3F)cc2C#Cc2ccc(N(CCCC)CCCC)cc2)cc1` gave a photoluminescence quantum yield (in ClCCl) of 0.17.
With `CC1(C)C(/C=C/C2=C(Oc3ccc(CCN=C=S)cc3I)C(=C/C=C3/N(CCCS(=O)(=O)[O-])c4ccccc4C3(C)C)/CCC2)=[N+](CCCS(=O)(=O)[O-])c2ccccc21`, the photoluminescence quantum yield (in CO) is 0.15.
Compound `CNc1ccc2c(c1)-c1ccccc1C2=O` came in with a photoluminescence quantum yield (in C1CCCCC1) of 0.045, a photoluminescence quantum yield (in CC#N) of 0.064, a photoluminescence quantum yield (in CCO) of 0.0065 and a photoluminescence quantum yield (in c1ccccc1) of 0.19.
The compound `COc1cccc(C2=c3c(c4ccc(C(C)(C)C)cc4c4cc(C(C)(C)C)ccc34)=[N+]3C2=C(c2ccccc2)c2c(-c4cccc(OC)c4)c4c5ccc(C(C)(C)C)cc5c5cc(C(C)(C)C)ccc5c4n2[B-]3(F)F)c1` returned a photoluminescence quantum yield (in C1CCCCC1) of 0.62; a photoluminescence quantum yield (in C1CCOC1) of 0.5; a photoluminescence quantum yield (in CC#N) of 0.52; a photoluminescence quantum yield (in Cc1ccccc1) of 0.43; a photoluminescence quantum yield (in ClCCl) of 0.54.
For `COc1ccc(O)c(-c2[nH]c(=O)n3c2-c2ccccc2C3=O)c1`, the photoluminescence quantum yield by setting is: (in CC#N) 0.46; (in CO) 0.01; (in ClCCl) 0.66.
Turning to `CC(=O)Nc1cccc2c1C#Cc1c(cccc1C(=O)N(C)C)OCCCO2`, the photoluminescence quantum yield worked out at 0.005 (in CC#N) and 0.012 (in ClCCl).
Take `Cc1ccc2c(c1)c1cc(C)ccc1n2-c1cc(-c2nc(-c3ccccc3)nc(-c3ccccc3)n2)cc(-n2c3ccc(C)cc3c3cc(C)ccc32)c1-n1c2ccc(C)cc2c2cc(C)ccc21`: the photoluminescence quantum yield under setting [2] was 1.
On to `CN(C)c1ccc2nc(-c3ccccc3)c(=O)oc2c1`, for which the photoluminescence quantum yield (in c1ccccc1) was 0.526.
`COc1cccc2cc(-c3ccc([N+](=O)[O-])cc3)c(=O)oc12` returned a photoluminescence quantum yield (in C1CCOC1) of 0.005, a photoluminescence quantum yield (in CC#N) of 0.0019, a photoluminescence quantum yield (in CS(C)=O) of 0.0015 and a photoluminescence quantum yield (in ClC(Cl)Cl) of 0.014.
`CC1(C)c2ccccc2N(c2cccc(S(=O)(=O)c3cccc(N4c5ccccc5C(C)(C)c5ccccc54)c3)c2)c2ccccc21` had a photoluminescence quantum yield (in CCCCC(CC)n1c2ccc(-n3c4ccccc4c4ccccc43)cc2c2cc(-n3c4ccccc4c4ccccc43)ccc21) of 0.239 and a photoluminescence quantum yield (in c1cc(-n2c3ccccc3c3ccccc32)cc(-n2c3ccccc3c3ccccc32)c1) of 0.365.
Compound `CCOC(=O)c1c(NC(C)(C)C)oc(-c2ccc(-c3ccccc3)cc2)c1C(=O)OCC` displayed a photoluminescence quantum yield (in CC#N) of 0.235.
With `CCCCn1c(-c2ccc(-c3ccc(-c4ccc(-c5n(CCCC)c6cc(C)ccc6[n+]5CCCC)cc4)cc3)cc2)[n+](CCCC)c2ccc(C)cc21`, the photoluminescence quantum yield (in O) stood at 0.78.
The compound `Cc1ccc(/C2=C3N=C(C(c4ccccc4)=C/3c3ccccc3)/C(c3ccc(C)cc3)=c3\[nH]/c(c(-c4ccccc4)c3-c3ccccc3)=C(/c3ccc(C)cc3)C3=N/C(=C(/c4ccc(C)cc4)c4[nH]c2c(-c2ccccc2)c4-c2ccccc2)C(c2ccccc2)=C3c2ccccc2)cc1` displayed a photoluminescence quantum yield (in ClCCl) of 0.008.
Turning to `C(#Cc1ccc(C#Cc2ccccc2)cc1)c1ccccc1`, the photoluminescence quantum yield (in ClC(Cl)Cl) was 0.5.
The compound `CC(C)(C)c1ccc2c(c1)B1c3cc(C(C)(C)C)ccc3Oc3cc(-n4c5ccccc5c5c6c(c7ccccc7n6-c6ccccc6)c6c(c7ccccc7n6-c6ccccc6)c54)cc(c31)O2` yielded a photoluminescence quantum yield (in Cc1ccccc1) of 0.99.
In turn, `CC(C)(C)OC(=O)NC(C(=O)OCc1ccc2c3cccc4cccc(c5cccc1c52)c43)c1c[nH]c2ccccc12` (stereo not given) gave a photoluminescence quantum yield (in CCO) of 0.86.
The compound `N#Cc1c(-n2nnc3cc(Cl)ccc32)n([C@H]2C[C@H](O)[C@@H](CO)O2)c2ncnc(N)c12` had a photoluminescence quantum yield (in CO) of 0.008.
Consider `[O-][n+]1c(/C=C/c2ccccc2)nc(N2CCOCC2)c2c1CCCC2`, for which, for the setting “in ClCCl”, the photoluminescence quantum yield came to 0.21.
On to `c1ccc(-c2cc(-c3ccccc3)[o+]c(-c3ccccc3)c2)cc1`, for which the photoluminescence quantum yield came out at 0.4 (in CC#N) and 0.28 (in ClCCCl).
For the compound `COc1ccc(-n2cccc2)cc1`, the photoluminescence quantum yield turned out to be 0.33 (in CC#N) and 0.26 (in CCCCCC).
Regarding `COc1ccc(C2=C3C=c4c(oc5cc6c(cc45)[C@H]4CC[C@]5(C)C(=O)CC[C@H]5[C@@H]4CC6)=[N+]3[B-](F)(F)n3c2cc2c4cc5c(cc4oc23)CC[C@@H]2[C@@H]5CC[C@]3(C)C(=O)CC[C@@H]23)cc1`, the photoluminescence quantum yield by setting is: (in CCOC(C)=O) 0.61; (in CCOCC) 0.88; (in CO) 0.52.
Regarding `COc1cc(C)c(-c2cc(-c3c(C)cc(OC)cc3C)c3ccc4c(-c5c(C)cc(OC)cc5C)cc(-c5c(C)cc(OC)cc5C)c5ccc2c3c54)c(C)c1`, the photoluminescence quantum yield (in ClCCl) was 0.38.
In the case of `CCCCC(CC)CN1C(=O)c2cc(Oc3ccc(OC)cc3)c3c4c(Oc5ccc(C(C)(C)C)cc5)cc5c6c(cc(Oc7ccc(C(C)(C)C)cc7)c(c7c(Oc8ccc(OC)cc8)cc(c2c37)C1=O)c64)C(=O)N(c1c(C(C)C)cccc1C(C)C)C5=O` (stereo not given), the photoluminescence quantum yield (in Cc1ccccc1) came out at 0.58.
In turn, `N#Cc1c(C#N)c2cc(F)ccc2c2ccc(F)cc12` displayed a photoluminescence quantum yield (in ClC(Cl)Cl) of 0.08.
Under setting [2], `O=S1(=O)c2ccccc2Oc2cc(N3c4ccccc4C4(c5ccccc53)c3ccccc3N(c3ccc5c(c3)Oc3ccccc3S5(=O)=O)c3ccccc34)ccc21` had a photoluminescence quantum yield of 0.63.

(Values after the Deep4Chem optical property database.)
